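Results reflect a 48-hour exposure of cells in 96-well plates to compound at five concentrations. Abbreviation: GI50, concentration required for 50% inhibition of growth. At the TGI there is no net growth.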
How the values were obtained:
Assay in all cases: NCI tumour cell line growth inhibition, 48 h
[1] = tested on: UO-31 renal
[2] = tested on: HOP-92 NSCLC
[3] = tested on: HS 578T breast
[4] = tested on: SF-539 CNS
[5] = tested on: MDA-MB-231 breast
[6] = tested on: RXF 393 renal
[7] = tested on: PC-3 prostate
[8] = tested on: RPMI-8226 leukemia
[9] = tested on: NCI-H23 lung
[10] = tested on: COLO 205 colon
[11] = tested on: SW-620 colon
[12] = tested on: M14 melanoma
[13] = tested on: NCI-H460 lung
[14] = tested on: OVCAR-3 ovarian
[15] = tested on: UACC-257 melanoma
[16] = tested on: SK-MEL-28 melanoma
[17] = tested on: HCT-15 colon
[18] = tested on: SN12C renal
[19] = tested on: HOP-62 NSCLC
[20] = tested on: SF-295 CNS
[21] = tested on: SK-OV-3 ovarian
[22] = tested on: SF-268 CNS
[23] = tested on: A498 renal
[24] = tested on: SNB-19 CNS
[25] = tested on: ACHN renal
[26] = tested on: MCF7 breast
[27] = tested on: LOX IMVI melanoma
[28] = tested on: NCI-H522 lung
[29] = tested on: SNB-75 CNS
[30] = tested on: NCI/ADR-RES ovarian
[31] = tested on: HL-60(TB) leukemia
[32] = tested on: IGROV1 ovarian
[33] = tested on: HCC-2998 colon
[34] = tested on: SR leukemia
[35] = tested on: CAKI-1 renal
[36] = tested on: T-47D breast
[37] = tested on: 786-0 renal
[38] = tested on: OVCAR-8 ovarian
[39] = tested on: A549 NSCLC
[40] = tested on: HT29 colon
[41] = tested on: SK-MEL-5 melanoma
[42] = tested on: CCRF-CEM leukemia
[43] = tested on: TK-10 renal
[44] = tested on: HCT-116 colon
[45] = tested on: OVCAR-5 ovarian
[46] = tested on: BT-549 breast
[47] = tested on: U251 CNS
[48] = tested on: MDA-MB-435
[49] = tested on: DU-145 prostate
[50] = tested on: MOLT-4 leukemia
[51] = tested on: NCI-H226 lung
[52] = tested on: KM12 colon
[53] = tested on: K-562 leukemia
[54] = tested on: MALME-3M melanoma
[55] = tested on: EKVX NSCLC
[56] = tested on: SK-MEL-2 melanoma
[57] = tested on: UACC-62 melanoma
[58] = tested on: OVCAR-4 ovarian

**Q.** How did the GI50 [1] turn out when `CN1CCN(C2=C(Cl)C(=O)c3ccccc3C2=O)CC1` was run?
**A.** 1220 nM

**Q.** And the TGI [1]?
**A.** 2630 nM

**Q.** And the GI50 [2]?
**A.** 1520 nM

**Q.** And the TGI [2]?
**A.** 3070 nM

**Q.** What about the GI50 [3] of the same compound?
**A.** 1840 nM

**Q.** And the TGI [3]?
**A.** 4840 nM

**Q.** What about the GI50 [4] of the same compound?
**A.** 2080 nM

**Q.** What about the TGI [4] of the same compound?
**A.** 4470 nM

**Q.** What about the GI50 [5] of the same compound?
**A.** 1840 nM

**Q.** And the TGI [5]?
**A.** 3990 nM

**Q.** And the GI50 [6]?
**A.** 1590 nM

**Q.** And the TGI [6]?
**A.** 2950 nM

**Q.** And the GI50 [7]?
**A.** 3450 nM

**Q.** And the TGI [7]?
**A.** 8910 nM

**Q.** What about the GI50 [8] of the same compound?
**A.** 3090 nM

**Q.** What about the TGI [8] of the same compound?
**A.** 9610 nM

**Q.** What about the GI50 [9] of the same compound?
**A.** 1720 nM

**Q.** And the TGI [9]?
**A.** 3650 nM

**Q.** What about the GI50 [10] of the same compound?
**A.** 1510 nM

**Q.** And the TGI [10]?
**A.** 2900 nM

**Q.** What about the GI50 [11] of the same compound?
**A.** 1670 nM

**Q.** What about the TGI [11] of the same compound?
**A.** 3230 nM

**Q.** And the GI50 [12]?
**A.** 1780 nM

**Q.** What about the TGI [12] of the same compound?
**A.** 3230 nM

**Q.** What about the GI50 [13] of the same compound?
**A.** 2950 nM

**Q.** And the TGI [13]?
**A.** 9470 nM

**Q.** What about the GI50 [14] of the same compound?
**A.** 1390 nM

**Q.** What about the TGI [14] of the same compound?
**A.** 2690 nM

**Q.** What about the GI50 [15] of the same compound?
**A.** 1730 nM

**Q.** And the TGI [15]?
**A.** 3200 nM

**Q.** And the GI50 [16]?
**A.** 1750 nM

**Q.** What about the TGI [16] of the same compound?
**A.** 3180 nM

**Q.** And the GI50 [17]?
**A.** 1770 nM

**Q.** And the TGI [17]?
**A.** 3410 nM

**Q.** What about the GI50 [18] of the same compound?
**A.** 1610 nM

**Q.** And the TGI [18]?
**A.** 3080 nM

**Q.** And the GI50 [19]?
**A.** 2040 nM

**Q.** What about the TGI [19] of the same compound?
**A.** 5120 nM

**Q.** What about the GI50 [20] of the same compound?
**A.** 4800 nM

**Q.** And the TGI [20]?
**A.** 15900 nM

**Q.** And the GI50 [21]?
**A.** 9110 nM

**Q.** What about the TGI [21] of the same compound?
**A.** 22400 nM

**Q.** What about the GI50 [22] of the same compound?
**A.** 2820 nM

**Q.** And the TGI [22]?
**A.** 10900 nM

**Q.** And the GI50 [23]?
**A.** 13.2 nM

**Q.** What about the TGI [23] of the same compound?
**A.** 4250 nM

**Q.** And the GI50 [24]?
**A.** 4080 nM

**Q.** And the TGI [24]?
**A.** 15300 nM

**Q.** What about the GI50 [25] of the same compound?
**A.** 1570 nM

**Q.** What about the TGI [25] of the same compound?
**A.** 2940 nM

**Q.** And the GI50 [26]?
**A.** 1450 nM

**Q.** And the TGI [26]?
**A.** 3160 nM

**Q.** And the GI50 [27]?
**A.** 1600 nM

**Q.** And the TGI [27]?
**A.** 3000 nM

**Q.** And the GI50 [28]?
**A.** 380 nM

**Q.** And the TGI [28]?
**A.** 1640 nM

**Q.** What about the GI50 [29] of the same compound?
**A.** 1910 nM

**Q.** What about the TGI [29] of the same compound?
**A.** 4910 nM

**Q.** And the GI50 [30]?
**A.** 2030 nM

**Q.** And the TGI [30]?
**A.** 4570 nM

**Q.** And the GI50 [31]?
**A.** 2390 nM

**Q.** What about the TGI [31] of the same compound?
**A.** 5840 nM

**Q.** What about the GI50 [32] of the same compound?
**A.** 1880 nM

**Q.** What about the TGI [32] of the same compound?
**A.** 4320 nM

**Q.** What about the GI50 [33] of the same compound?
**A.** 2050 nM

**Q.** What about the TGI [33] of the same compound?
**A.** 4510 nM

**Q.** And the GI50 [34]?
**A.** 3420 nM

**Q.** What about the TGI [34] of the same compound?
**A.** > 27300 nM

**Q.** And the GI50 [35]?
**A.** 1770 nM

**Q.** And the TGI [35]?
**A.** 3390 nM

**Q.** And the GI50 [36]?
**A.** 789 nM

**Q.** What about the TGI [36] of the same compound?
**A.** 2730 nM

**Q.** What about the GI50 [37] of the same compound?
**A.** 1770 nM

**Q.** What about the TGI [37] of the same compound?
**A.** 3390 nM

**Q.** What about the GI50 [38] of the same compound?
**A.** 1740 nM

**Q.** What about the TGI [38] of the same compound?
**A.** 3590 nM

**Q.** And the GI50 [39]?
**A.** 3420 nM

**Q.** And the TGI [39]?
**A.** 11200 nM

**Q.** What about the GI50 [40] of the same compound?
**A.** 1940 nM

**Q.** And the TGI [40]?
**A.** 3700 nM

**Q.** And the GI50 [41]?
**A.** 1550 nM

**Q.** And the TGI [41]?
**A.** 2930 nM

**Q.** What about the GI50 [42] of the same compound?
**A.** 2450 nM

**Q.** What about the TGI [42] of the same compound?
**A.** 7960 nM

**Q.** And the GI50 [43]?
**A.** 1710 nM

**Q.** What about the TGI [43] of the same compound?
**A.** 3290 nM

**Q.** And the GI50 [44]?
**A.** 1420 nM

**Q.** What about the TGI [44] of the same compound?
**A.** 2750 nM

**Q.** What about the GI50 [45] of the same compound?
**A.** 2030 nM

**Q.** What about the TGI [45] of the same compound?
**A.** 4180 nM

**Q.** And the GI50 [46]?
**A.** 1970 nM

**Q.** And the TGI [46]?
**A.** 4750 nM

**Q.** And the GI50 [47]?
**A.** 1720 nM

**Q.** And the TGI [47]?
**A.** 3280 nM

**Q.** What about the GI50 [48] of the same compound?
**A.** 1950 nM

**Q.** What about the TGI [48] of the same compound?
**A.** 3600 nM

**Q.** What about the GI50 [49] of the same compound?
**A.** 1740 nM

**Q.** And the TGI [49]?
**A.** 3110 nM

**Q.** And the GI50 [50]?
**A.** 2200 nM

**Q.** And the TGI [50]?
**A.** 8260 nM

**Q.** And the GI50 [51]?
**A.** 3310 nM

**Q.** And the TGI [51]?
**A.** 10400 nM

**Q.** What about the GI50 [52] of the same compound?
**A.** 5270 nM

**Q.** What about the TGI [52] of the same compound?
**A.** 16700 nM

**Q.** And the GI50 [53]?
**A.** 1650 nM

**Q.** What about the TGI [53] of the same compound?
**A.** 7570 nM

**Q.** What about the GI50 [54] of the same compound?
**A.** 1810 nM

**Q.** What about the TGI [54] of the same compound?
**A.** 3510 nM

**Q.** And the GI50 [55]?
**A.** 3050 nM

**Q.** What about the TGI [55] of the same compound?
**A.** 11000 nM

**Q.** What about the GI50 [56] of the same compound?
**A.** 3150 nM

**Q.** What about the TGI [56] of the same compound?
**A.** 7960 nM

**Q.** What about the GI50 [57] of the same compound?
**A.** 1650 nM

**Q.** And the TGI [57]?
**A.** 3110 nM

**Q.** And the GI50 [58]?
**A.** 1590 nM

**Q.** What about the TGI [58] of the same compound?
**A.** 2950 nM
